What was measured:
Experiment in all cases: relative viability (nuclei count vs DMSO), 5 days (fraction); higher = more cells survive
Wnt-C59 + Tozasertib = compound: CC1=NC=CC(=C1)C2=CC=C(C=C2)CC(=O)NC3=CC=C(C=C3)C4=CN=CC=C4 [Wnt-C59] + Cc1cc(Nc2cc(N3CCN(C)CC3)nc(Sc3ccc(NC(=O)C4CC4)cc3)n2)n[nH]1 [Tozasertib] (partner 0.1 µM)
Method in brief: (§1)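 Lung cancer cell lines were seeded in 1536-well plates and dosed by pin tool the next day, with either a single drug or a fixed anchor-drug dose combined with five library-drug doses (not always all listed) spaced in √10 steps. Five days later, one step fixed the cells and stained their nuclei (final 0.05% Triton X-100, 1% formaldehyde, 1 ug/ml Hoechst), and nuclei were counted on 4× images. Relative viability is the nuclei count in treated wells divided by the count in vehicle wells, and each value is the median of duplicate plates.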

Wnt-C59 + Lapatinib = compound: CC1=NC=CC(=C1)C2=CC=C(C=C2)CC(=O)NC3=CC=C(C=C3)C4=CN=CC=C4 [Wnt-C59] + CS(=O)(=O)CCNCc1ccc(-c2ccc3ncnc(Nc4ccc(OCc5cccc(F)c5)c(Cl)c4)c3c2)o1 [Lapatinib] (partner 2 µM)
Method in brief: as §1

Wnt-C59 + Linsitinib = compound: CC1=NC=CC(=C1)C2=CC=C(C=C2)CC(=O)NC3=CC=C(C=C3)C4=CN=CC=C4 [Wnt-C59] + C[C@]1(O)C[C@@H](c2nc(-c3ccc4ccc(-c5ccccc5)nc4c3)c3c(N)nccn32)C1 [Linsitinib] (partner 1 µM)
Method in brief: as §1

Wnt-C59 + Alpelisib = compound: CC1=NC=CC(=C1)C2=CC=C(C=C2)CC(=O)NC3=CC=C(C=C3)C4=CN=CC=C4 [Wnt-C59] + Cc1nc(NC(=O)N2CCC[C@H]2C(N)=O)sc1-c1ccnc(C(C)(C)C(F)(F)F)c1 [Alpelisib] (partner 2 µM)
Method in brief: as §1

Wnt-C59 + Crizotinib = compound: CC1=NC=CC(=C1)C2=CC=C(C=C2)CC(=O)NC3=CC=C(C=C3)C4=CN=CC=C4 [Wnt-C59] + C[C@@H](Oc1cc(-c2cnn(C3CCNCC3)c2)cnc1N)c1c(Cl)ccc(F)c1Cl [Crizotinib] (partner 1 µM)
Method in brief: as §1

Cell Line	relative viability (Wnt-C59 + Tozasertib; first compound 0.001 µM)	relative viability (Wnt-C59 + Tozasertib; first compound 0.01 µM)	relative viability (Wnt-C59 + Tozasertib; first compound 0.03162 µM)	relative viability (Wnt-C59 + Tozasertib; first compound 0.1 µM)	relative viability (Wnt-C59 + Lapatinib; first compound 0.001 µM)	relative viability (Wnt-C59 + Lapatinib; first compound 0.01 µM)	relative viability (Wnt-C59 + Lapatinib; first compound 0.03162 µM)	relative viability (Wnt-C59 + Lapatinib; first compound 0.1 µM)	relative viability (Wnt-C59 + Linsitinib; first compound 0.001 µM)	relative viability (Wnt-C59 + Linsitinib; first compound 0.01 µM)	relative viability (Wnt-C59 + Linsitinib; first compound 0.03162 µM)	relative viability (Wnt-C59 + Linsitinib; first compound 0.1 µM)	relative viability (Wnt-C59 + Alpelisib; first compound 0.001 µM)	relative viability (Wnt-C59 + Alpelisib; first compound 0.01 µM)	relative viability (Wnt-C59 + Alpelisib; first compound 0.03162 µM)	relative viability (Wnt-C59 + Alpelisib; first compound 0.1 µM)	relative viability (Wnt-C59 + Crizotinib; first compound 0.001 µM)	relative viability (Wnt-C59 + Crizotinib; first compound 0.01 µM)	relative viability (Wnt-C59 + Crizotinib; first compound 0.03162 µM)	relative viability (Wnt-C59 + Crizotinib; first compound 0.1 µM)
EMC-BAC-2	0.341	0.274	0.322	0.306	0.828	0.755	0.849	0.794	0.736	0.642	0.741	0.709	0.684	0.607	0.672	0.65	0.642	0.649	0.636	0.678
NCI-H522	0.63	0.566	0.578	0.651	–	–	–	–	–	–	–	–	–	–	–	–	–	–	–	–
NCI-H1734	0.258	0.233	0.288	0.139	0.948	1.04	1.09	1.02	0.858	0.779	0.916	0.911	0.807	0.68	0.703	0.726	0.642	0.618	0.773	0.66
LC-2-ad	0.403	0.45	0.478	0.434	1.03	0.902	0.975	0.927	0.864	0.811	0.944	0.776	0.824	0.846	0.953	0.778	0.45	0.442	0.553	0.279
ABC-1	0.15	0.166	0.164	0.19	1.1	1.18	1.14	1.19	0.909	0.759	0.774	0.702	1.26	1.01	0.718	0.876	1.03	1.21	1.11	0.868
SW 1573	0.144	0.196	0.342	0.167	1.06	0.906	1.05	1.12	0.696	0.806	0.874	0.862	0.701	0.758	0.89	0.79	0.771	0.764	0.746	0.825
NCI-H1299	–	–	–	–	0.984	0.975	0.982	0.988	0.965	1.07	0.961	1	1.05	1.08	1.05	1.04	1.02	0.562	0.952	0.953
HCC-827	0.45	0.427	0.374	0.443	0.188	0.163	0.191	0.203	1	0.966	0.977	0.884	0.993	0.979	0.971	0.966	1.01	0.979	0.942	0.975
201T	0.96	0.923	1.05	0.952	0.985	1.04	1.03	0.991	1.02	1.04	1.06	1.04	1.06	1.01	0.99	1	1.01	1.02	1.01	1.03
HCC-15	0.407	0.389	0.322	0.44	0.859	0.91	0.774	0.823	0.922	0.96	0.856	0.928	0.962	0.952	0.904	0.868	0.891	0.82	0.919	0.85
NCI-H2347	0.581	0.453	0.446	0.618	0.961	0.861	0.976	0.854	0.987	0.889	0.98	0.987	0.936	1.01	0.9	0.984	0.673	0.598	0.612	0.653
NCI-H2170	0.721	0.641	0.852	0.602	0.265	0.262	0.275	0.271	–	–	–	–	0.813	0.675	0.987	0.841	1.19	1.09	1.46	1.11
NCI-H1648	0.581	0.611	0.364	0.524	–	–	–	–	–	–	–	–	–	–	–	–	–	–	–	–
NCI-H2342	0.643	0.416	0.53	0.624	–	–	–	–	–	–	–	–	–	–	–	–	–	–	–	–
NCI-H1563	–	–	–	–	0.873	1.04	0.896	0.882	1.24	1.2	1.34	1.13	0.925	0.852	1.07	0.888	0.812	0.802	0.965	0.797
EBC-1	–	–	–	–	0.203	0.214	0.18	0.208	0.927	0.912	0.925	0.814	0.91	0.852	0.755	0.79	0.191	0.188	0.204	0.224
A549	–	–	–	–	1.04	1.02	0.966	0.988	0.568	0.498	0.555	0.504	0.978	0.75	0.712	0.682	0.802	0.676	0.752	0.676
NCI-H441	0.691	0.646	0.691	0.566	–	–	–	–	0.496	0.407	0.667	0.575	0.797	0.687	0.809	0.583	0.731	0.906	0.805	0.615
NCI-H1623	0.426	0.401	0.415	0.434	–	–	–	–	–	–	–	–	–	–	–	–	–	–	–	–
NCI-H1395	0.71	0.668	0.755	0.844	1.03	0.972	1.1	0.991	0.972	1.06	1.09	1.03	0.993	1.13	1.08	1.07	–	–	–	–

— the supplement of paper PMC10307832
